This is an account of results in patent US20250152577A1, “Pharmaceutical Composition of Ethidium Bromide and Use in Treating Cancer” (RUIJIN HOSPITAL, SHANGHAI JIAOTONG UNIVERSITY SCHOOL OF …, priority 2022, published 2025).

Data set [1] relates to colorectal cancer cells RKO. The data set can be described thus: Mitochondrial function by Seahorse. In kind it is cell-based, human. Conditions: Seahorse after 6 hours; concentration-dependent. The protocol: To further verify the effect of ethidium bromide on mitochondrial function, various cell lines were treated with ethidium bromide and mitochondrial function was tested by using Seahorse after 6 hours.

Another data set deals with Reh Leukemia. The data set can be described thus: Median lethal dosage (IC50) against tumor cell lines. The following applies: Reh leukemia tumor cells. In kind it is cell-based.
For data set [2] the following is noted: cited from earlier work.

Take `CC[n+]1c(-c2ccccc2)c2cc(N)ccc2c2ccc(N)cc21` [ethidium bromide, Ethidium bromide]: the “oxygen consumption, glycolysis level, glycolysis rate” value in data set [1] is recorded as “significantly reduced”. In the data set on Reh Leukemia, it took 2230 nM to reach half-maximal inhibition (IC50). The “DNA mutations and carcinogenesis in cells or organisms” value in data set [2] (National Toxicology Program, 1239-45-8) is “no evidence that ethidium bromide can induce DNA mutations and carcinogenesis”. Further, the “genetic mutations in cells” value in data set [2] (long-term treatment, Mutation Research, 174(1986) 175-178) was “do not create genetic mutations”.
